Reference: patent US20200261409A1, “METHODS FOR PAIN TREATMENT USING RESINIFERATOXIN” (priority 2015, published 2020)
“Also recorded” adds a separate entry of the source.

What was measured:
[1] = tested on: sP+ axons in the dorsal horn of the spinal cord; assay: Substance P (sP) immunohistochemistry of the spinal cord after PG-ED injection; type: in vivo, Yucatan miniature swine
Description: (§1) The study was approved by the Institutional Animal Care and Use Committee of the Mayo Clinic. Female Yucatan miniature swine (Exemplar Genetics, Sioux Center, Iowa, USA) weighing 25-45 kg at the time of RTX administration were used. For both procedures (i.e., ACLT and PG-ED injection), the pigs were anesthetized by intramuscular injection of Telazol (tiletamine and zolazepam, 5 mg/kg; Fort Dodge Animal Health, Fort Dodge, Iowa, USA), xylazine (2 mg/kg; Akorn, Decatur, Ill., USA), and glycopyrrolate (0.01 mg/kg; Baxter Healthcare, Deerfield, Ill., USA), followed by endotracheal intubation and anesthesia maintenance with 1.5%-2% isoflurane (Piramal Healthcare, Bethlehem, Pa., USA). For antibiotic prophylaxis, the animals were given a single dose of intramuscular ceftiofur (5 mg/kg; Pfizer, New York, N.Y., USA). For postoperative analgesia, the animals received a single dose of slow release buprenorphine (0.18 mg/kg; Wildlife Pharmaceuticals, Windsor, Colo., USA) intramuscularly and then oral carprofen (3 mg/kg; Pfizer Animal Health, New York, N.Y., USA) as needed for the first three postoperative days. For CTF guided PG-ED injection of RTX, a clinical CT scanner (Definition DS, Siemens Healthcare) with interventional CTF hardware and software packages was used. A full CT scan of the lumbosacral 13 spine was first performed to visualize the spinal anatomy and to identify the optimal access routes to the targeted PG-ED segments. The CT scanner acquisition settings were the same as reported previously (J. Pleticha, et al., Pig lumbar spine anatomy and imaging-guided lateral lumbar puncture: A new large animal model for intrathecal drug delivery, J. Neurosci. Methods 216, 10-15 (2013)). Next, a 22 G, 6″ spinal needle with Quincke tip (Kimberly-Clark, Roswell, Ga., USA) was advanced to the PG-ED space following the predetermined trajectory. […]

[2] = tested on: other neuronal populations in the spinal cord (NeuN; primary motor neurons); assay: Neuronal nuclei (NeuN) staining of the spinal cord after PG-ED injection; type: in vivo, Yucatan miniature swine; conditions: PG-ED injection of RTX; FIGS. 3A-3D
Description: as §1, with “used.” for “used. A full CT scan of the lumbosacral 13 spine was first performed to visualize the spinal anatomy and to identify the optimal access routes to the targeted PG-ED segments. The CT scanner acquisition settings were the same as reported previously (J. Pleticha, et al., Pig lumbar spine anatomy and imaging-guided lateral lumbar puncture: A new large animal model for intrathecal drug delivery, J. Neurosci. Methods 216, 10-15 (2013)). Next, a 22 G, 6″ spinal needle with Quincke tip (Kimberly-Clark, Roswell, Ga., USA) was advanced to the PG-ED space following the predetermined trajectory.”

[3] = tested on: swine with gait asymmetry due to chronic knee pain induced by unilateral ACLT; assay: Blinded behavioral assessment of the limp in the ACLT knee osteoarthritis model; type: in vivo, Yucatan miniature swine
Description: as §1

rats = conditions: subcutaneous and epidural administration; cited from earlier work

SMILES: C=C(C)[C@]12C[C@@H](C)[C@@]34OC(Cc5ccccc5)(O[C@@H]1[C@@H]3C=C(COC(=O)Cc1ccc(O)c(OC)c1)C[C@]1(O)C(=O)C(C)=C[C@@H]41)O2 [RTX]
- sP+ axonal terminals in the dorsal horn at injected spinal levels, ACLT animals ([1]; ACLT pigs, n=3 RTX, PG-ED at ipsilateral L4, L5, 51, and S2, FIGS. 4A-4F): complete loss of sP+ fibers; also recorded: complete loss of the sP+ axonal terminals
- RTX dosed animals with low/none sP histology (blinded observer) ([1]; Example 7, second group of pigs, PG-ED, doses of 1.5 μg and 5 μg, P=0.002): 6 of 6
- sP+ axons/fibers in the dorsal horn of the spinal cord at the injected levels ([1]; PG-ED injection, 5 μg RTX in 500 μl diluent per spinal level, blinded analysis, n=10 animals in study, sign test p<0.001): no sP staining; also recorded: complete loss of sP+ axons
- NeuN staining (spinal cord neurons, motor neurons of the anterior horn) [2]: unaffected; also recorded: not affected
- limp / gait asymmetry, before vs after injection (blinded observers) ([3]; ACLT pigs, n=3 RTX, PG-ED at ipsilateral L4, L5, 51, and S2, 3-5 weeks after administration, sign test p<0.02): improvements in symmetric weight bearing; also recorded: improvement of limp in all animals; also recorded: all animals receiving RTX improved; also recorded: significant reversal of gait asymmetry
- clinically observed pain-related behavior (blinded observer) ([3]; Example 7, pigs with knee osteoarthritis, n=8, PG-ED, p=0.03): improved
- thermal analgesia, time without restoration of pain sensitivity (rats): over 7 days

SMILES: CN1CC[C@]23c4c5ccc(O)c4O[C@H]2[C@@H](O)C=C[C@H]3[C@H]1C5 [morphine]
- weight-bearing asymmetry ([3]; ACLT pigs, intramuscular, unblinded observations): diminished weight-bearing asymmetry
